The source of these data is patent US10858305B2, “Perillyl alcohol-3-bromopyruvate conjugate and methods of treating cancer” (NeOnc Technologies, Inc., priority 2016, dated 2020).

Assay type in all cases: cell-based, human
For one experiment, the system named is tumor cell lines. Nature of the experiment: cells. The note with it: Homo sapiens; MTT, 24 hours; POH alone; read-out: concentration required to reach IC50. The protocol: Different tumor cell lines were treated with 3-BP mixed with POH, and the effects were compared to the effects of NEO218, as well as to 3-BP alone. The cells were treated for 24 hours, and then the MTT assay was conducted to measure cell viability.

The next experiment relates to MDA-MB-231 cells. Nature of the experiment: MTT short-term toxicity assay in MDA-MB-231 cells. The note with it: MDA-MB-231. The protocol:
(§1) (A) MTT assay was performed after 24 hours. […] (B) LDH assay was performed after […]. LDH release by untreated cells was set to 1. Relative fold increase is shown (n=3).
(§2) (A) MTT assay was performed after 24 hours. Viability of untreated cells was set at 100% (data points are averages of 2 experiments). (B) LDH assay was performed after 24 hours. LDH release by untreated cells was set to 1. Relative fold increase is shown (averages from 2 experiments). (C) Representative photos show typical colony formation after initial 48 hours of drug treatment. In all cases of combination treatment with 3-BP mixed with […] (3-BP+POH), the indicated concentrations refer to each individual drugs, i.e., 100 μM 3-BP+POH means that 100 μM 3-BP was combined with 100 μM POH.
Methylthiazoletetrazolium (MTT) assays were performed as described earlier.

For experiment [1], the system named is all cell types (breast, brain, ovary, colon cancer cell lines). As to the kind of experiment: Summary of cytotoxicity over MTT, LDH and colony formation assays (FIGS. 2-5). The note with it: all cells. The text has this:
The tumor cell-killing potency of NEO218 was characterized by in vitro, short-term MTT assays (measuring viability of cells via determination of metabolic activity), LDH assays (measuring the release of lactate dehydrogenase as an indicator of leaky cell membranes, which are indicative of dying cells), and colony-formation assays (CFA, which determine long-term survival of drug-treated cells and their ability to spawn a colony of descendants). Several established cell lines derived from cancers of the breast were used as target cells (including MDA-MB-231; MDA-MB-468; T47D; MCF7; MCF7/Dox; BTB12), brain (T98G; U251), ovary (A2780), and colon (HCT116). In all cases, cells in culture were exposed to increasing concentrations of agents for 24 or 48 hours.

Experiment [2] relates to tumor cells (two cell lines, incl. MCF7/Dox). As to the kind of experiment: Colony formation assay (CFA), 24 hours drug exposure (FIG. 5). The conditions noted are these: Homo sapiens, MCF7-DOX, colonies after ten to fifteen days, read-out: IC50 (cell survival and colony formation). The method, then: The effect of NEO218 on tumor cell survival and colony formation relative to 3-BP, POH and 3-BP+POH was evaluated via the colony formation assay (CFA). Six hundred cells per culture well were seeded and exposed to increasing concentrations of NEO218, 3-BP, a mix of 3-BP+POH, or POH alone. After 24 hours, all drugs were removed from cells and fresh culture medium was added. Ten to fifteen days later, the surviving cells had formed colonies of descendants, which were stained and counted.

Experiment [3] deals with MDA-MB-231 breast cancer cells. As to the kind of experiment: LDH release assay in MDA-MB-231 / breast cancer cell lines. The conditions noted are these: breast cancer cell lines, 24 hours. The method, then:
as §1, §2
The capacity for rapid cell killing by NEO218 relative to 3-BP, POH and 3-BP+POH was evaluated via LDH assay, where LDH release is used as a proxy for cell death.
In FIG. 4, Panels (a) and (b), show the results of treating breast cancer cell lines with increasing concentrations of NEO218, 3-BP, or 3-BP mixed with POH. […] In all cases a-d, the release of LDH (as a marker of cell death) was measured after 24 hours.
Depending on the cell line, 2000 to 4000 cells per well were seeded in a volume of 50 μL into a 96-well plate. The next day, drugs ere added in an additional 50 μL of medium. At different time points (usually after 24 hours of incubation), 50 μL medium was removed and processed with the LDH Cytotoxicity Assay Kit (Thermo Fisher Scientific, Waltham, Mass.) according to the manufacturer's instructions. This kit measures extracellular LDH in culture medium using an enzymatic reaction that results in a red formazan product, which can be measured spectrophotometrically. The absorbance was measured at 490 and 680 nm. All LDH levels were normalized to untreated controls and presented as fold change of the controls.
A general note: LDH in the medium is a marker of cell lysis.

Experiment [4] deals with HCT116 colon cancer cells. As to the kind of experiment: Cellular ATP content assay. The conditions noted are these: 100 nM rotenone in glucose-free medium. The protocol: HCT116 cells were treated with 40 μM 3-BP or NEO218. As a point of reference, cells were also exposed to 100 nM rotenone in glucose-free medium. ATP levels were determined after 3 and 6 hours. ATP levels in untreated cells were set at 100% (corresponding to 26.6 nmol per one million cells).
HCT116 colon cancer cells were treated cells with: NEO218, 3-BP; rotenone (a mitochondrial poison that blocks the respiratory chain); medium without glucose (“no gluc”; in order to shut down glycolysis); and, rotenone in combination with absent glucose (to cease all intracellular ATP production). After 3 hours of treatment, a commercially available ATP detection assay kit was employed to determine the relative levels of ATP present.
ATP content of cells was measured with the ATP Colorimetric/Fluorometric Assay kit (Biovision Inc., Milpitas, Calif.), which utilizes the phosphorylation of glycerol to generate a product that is quantified by colorimetry at 570 nm. Approximately 1×10^6 cells were cultured in 10-cm tissue culture plates, exposed to drug treatment for various time periods, and then processed as per manufacturer's instructions. All ATP levels were normalized to untreated controls and presented as percentage of controls.

Experiment [5] has as its system cleaved caspase 7, cleaved PARP, γ-H2AX in MCF7, MDA-MB-231 and HCT116 cells. As to the kind of experiment: Western blot for apoptosis markers. The note with it: STS as positive control. The method, then: (§3) (A) FACS analysis of HCT116 cells after treatment for 2, 4, or 8 hours with vehicle, 30 μM 3-BP, 30 μM NEO218, or 1 μM staurosporine (STS). […] (B) Western blot analysis of apoptotic markers. In the top section, MDA-MB-231 cells were treated with 30 μM NEO218 or 1 μM STS for various time points. In the lower section, HCT116 cells were treated with the indicated concentrations of 3-BP, NEO218, or STS for 16 hours. In all cases cell lysates were prepared and analyzed for the well-established apoptotic markers cleaved PARP, cleaved (i.e., activated) caspase 7 (cl. C-7), and phosphorylated (i.e., active) H2AX. Actin was used as a loading control. (C) HCT116 cells were pretreated with 50 μM Z-VAD-FMK for one hour, followed by the addition of increasing concentrations of 3-BP or NEO218. Cell viability was determined by MTT assay 24 hours later. Data points are averages from n=3.
The capacity for NEO218 to induce apoptosis was evaluated in a series of experiments. Three different cell lines were treated 3-BP and NEO218. Drug-treated cells were harvested, and cellular lysates were analyzed by Western blot for the presence of the three well-established markers of apoptosis: • cleaved caspase 7 (cl. C7); • cleaved (cl.) vs. full-length (f.l.) PARP; and, • induction of γ-H2AX (which indicates DNA cleavage).
The appearance of cl. C7 and cl. PARP is indicative of ongoing apoptotic processes. In all cases, lysates were also probed for the presence of actin as a control.
Two breast cancer cell lines (MCF7 and MDA-MB-231) and one colon cancer cell line (HCT116) were treated with increasing concentrations of NEO218 or 3-BP. As a control, they were also treated with staurosporine (STS), a known potent inducer of apoptosis. Western blot analyses for the presence of apoptosis markers are shown in the left panels of FIG. 6.
Total cell lysates were analyzed by Western blot analysis as described earlier. Primary antibodies against cleaved caspase 7 and PARP were obtained from Cell Signaling Technology (Danvers, Mass.), and antibodies against actin (C-11) and MCT1 (H-1) were obtained from Santa Cruz Biotechnology (Santa Cruz, Calif.). All antibodies were used according to the manufacturers' recommendations, except that in the case of MCT1 detection, the boiling step was omitted before loading the samples onto the polyacrylamide gel. All immunoblots were repeated at least once to confirm the results.
(A western blot detects proteins with antibodies after separation by electrophoresis.)

In the next experiment the test system is HCT116 cells. As to the kind of experiment: FACS analysis for annexin V and propidium iodide. The conditions noted are these: 2, 4 or 8 hours of treatment. The method, then:
as §3
In the absence of indications that apoptotic mechanisms played a significant role in cell death induced by NEO218, necrosis was investigated as a potential key mechanism. The distinction between apoptotic and necrotic cell death was made by measuring annexin V staining (a marker of apoptosis) and PI (propidium iodide) staining (a marker of necrosis) of drug-treated cells, in comparison to non-drug-treated cells (as a control). Measurements of annexin V and PI were done by FACS analysis after 2, 4, or 8 hours of treatment. Cells were treated with NEO218, 3-BP, and staurosporine (individually), and incorporation of propidium iodide (PI, a marker of necrotic cell death) or annexin V (a marker for apoptosis) was determined by fluorescence-activated cell sorting.
The results are organized in FIG. 8 as follows: no treatment (top row), 3-BP (second row), NEO218 (third row), and staurosporine (bottom row).
Characterization of cell death was performed by flow cytometry using the Alexa Fluor® 488 Annexin V/Dead Cell Apoptosis kit (Thermo Fisher Scientific). This kit contains recombinant, green fluorophore-conjugated annexin V, which reacts with apoptotic cells, and DNA-binding, red-fluorescent propidium iodide (PI), which is impermeant to live and apoptotic cells, but stains dead cells. The different cell populations can be distinguished by green fluorescence (apoptotic cells), red fluorescence (necrotic/dead cells), and no fluorescence (live cells) during flow cytometry with 488 nm laser excitation. Control or drug-treated cells were processed as per manufacturer's instructions, followed by flow cytometry of 10,000 cells per point with an LSR II (BD Biosciences, San Jose, Calif.) at the USC Flow Cytometry Core Facility.

SMILES strings stand for the structures. Entries after “also recorded” stand apart in the source; their conditions may differ. A value given as a limit tells only on which side of the number the result lay.

Consider `C=C(C)[C@@H]1CC=C(CO)CC1` [POH, perillyl alcohol], for which the values for the IC50 (with tumor cell lines; in experiment [2]) were at least 500 µM and over 1000 µM, respectively. Besides, the “IC50 of POH alone” value with MDA-MB-231 cells is listed as “approaching the millimolar range”; in experiment [1], “several hundred”. In addition, in experiment [3], the “toxic potency by LDH release” value is reported as “requires fairly high concentrations to achieve cell killing”.
`C=C(C)[C@H]1Cc2c(ccc3c2O[C@@H]2COc4cc(OC)c(OC)cc4[C@@H]2C3=O)O1` [rotenone]: the ATP level result in experiment [4] (after six hours) is given as “about 10 % of normal”; in experiment [4] (within the first 3 hours, untreated = 100%), under 25%.
Turning to `CN[C@@H]1C[C@H]2O[C@@](C)([C@@H]1OC)n1c3ccccc3c3c4c(c5c6ccccc6n2c5c31)C(=O)NC4` [staurosporine], the “induction of apoptosis markers (cleaved PARP, cleaved caspase 7, γ-H2AX)” value in experiment [5] was “striking induction of all 3 markers of apoptosis”; in experiment [5] (listed as STS) it was “triggered pronounced cleavage of PARP, activation of C-7; also recorded: prominent appearance of apoptotic markers”. The “incorporation of PI (necrosis) versus annexin V (apoptosis)” value in the experiment on HCT116 cells is “incorporation of annexin V, but very little PI”; with HCT116 cells (listed as STS) it was “moved from the lower left quadrant (=fully viable cells) to the lower right quadrant (=annexin V-positive cells)”.
